The results in this text go back to patent US20260022142A1, “MACROCYCLIC IMMUNOMODULATORS” (Bristol-Myers Squibb Company, priority 2022, published 2026).

Each structure is given as a SMILES string. Bridge positions count the residues as written; N and C are the ends. Square brackets hold non-standard residues; d marks the D form. Peptide text beside a SMILES is read from it. * marks the point of attachment. ξ: configuration not given here. Phe(4-CH2CH2COOH) = N[C@@H](Cc1ccc(CCC(=O)O)cc1)C(=O)O; Phe(4-COOH) = N[C@@H](Cc1ccc(C(=O)O)cc1)C(=O)O; Bip = N[C@@H](Cc1ccc(-c2ccccc2)cc1)C(=O)O; Phe(3-Me) = Cc1cccc(C[C@H](N)C(=O)O)c1; hArg = N=C(N)NCCCC[C@H](N)C(=O)O; Cha = N[C@@H](CC1CCCCC1)C(=O)O; Cit = NC(=O)NCCC[C@H](N)C(=O)O; Thr(3ξ) = CC(O)[C@H](N)C(=O)O; X20 = CN(CCCCCCCCCCC(=O)O)*; 12Ado = NCCCCCCCCCCCC(=O)O; Carboxymethyl = O=C(O)C*; Orn = NCCC[C@H](N)C(=O)O; Aun = NCCCCCCCCCCC(=O)O; Dab = NCC[C@H](N)C(=O)O; Dap = NC[C@H](N)C(=O)O; AEEA = NCCOCCOCC(=O)O; Piv = CC(C)(C)C(=O)*; ξDab = NCCC(N)C(=O)O

The target of this experiment is T1, PD-1/PD-L1 interaction (PE-labeled human PD-L1-Ig binding to Jurkat cell line over-expressing human PD-1) (Homo sapiens, UniProt Q15116).
T1 construct: expressed in transfected cells; host or cells: Jurkat
T1 sequence (Q15116 25-288): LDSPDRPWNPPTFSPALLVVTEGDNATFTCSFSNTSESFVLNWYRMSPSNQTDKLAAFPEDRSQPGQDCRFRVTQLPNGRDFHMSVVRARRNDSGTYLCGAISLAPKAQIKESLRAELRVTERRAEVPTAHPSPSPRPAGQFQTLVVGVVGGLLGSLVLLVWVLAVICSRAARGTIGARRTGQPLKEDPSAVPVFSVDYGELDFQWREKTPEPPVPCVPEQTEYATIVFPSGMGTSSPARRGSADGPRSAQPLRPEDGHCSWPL
The experiment in a line: Jurkat-PD-1 Cell Binding High-Content Screening Assay (CBA). The conditions noted are these: Jurkat cell line over-expressing human PD-1; PE-labeled PD-L1-Ig 20 nM final; read-out: Jurkat hPD1-PDL1 IC50. The experiment is classed as cell-based. The method in brief:
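Jurkat cells stably over-expressing human PD-1 were seeded in DMEM with 10% fetal calf serum and pre-incubated with compound for 2 h at 37° C. PE-labeled human PD-L1-Ig was then added at 20 nM final for 1 hour, after which cells were fixed with paraformaldehyde, Hoechst-stained and imaged by high-content microscopy.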
In the case of `Cc1cccc(C[C@@H]2NC(=O)[C@H](CC(=O)O)NC(=O)[C@H](Cc3ccc(OCC(=O)O)cc3)NC(=O)[C@H](C(C)O)NC(=O)CSC[C@@H](C(=O)N[C@H](CC(N)=O)C(=O)NCCCCCCCCCCC(=O)O)NC(=O)[C@H](C(C)O)NC(=O)[C@H](C(C)C)NC(=O)[C@H](CC3CCCCC3)NC(=O)[C@H](CCN)NC(=O)[C@@H](CC(C)C)NC(=O)[C@H](CCCNC(N)=O)NC(=O)[C@H](Cc3ccc(OCC(=O)O)cc3)NC(=O)[C@H](Cc3ccc(-c4ccccc4)cc3)NC(=O)[C@H](Cc3ccc(OCC(=O)O)cc3)NC2=O)c1` (stereo partly drawn) [Compound 3499] ({CH2CO}-[Thr(3ξ)]Y(Carboxymethyl)D[Phe(3-Me)]Y(Carboxymethyl)[Bip]Y(Carboxymethyl)[Cit][dL][Dab][Cha]V[Thr(3ξ)]C[dN][Aun]-OH; thioether N-14), the IC50 was 15 nM.

In the case of `Cc1cccc(C[C@@H]2NC(=O)[C@H](CC(=O)O)NC(=O)[C@H](Cc3ccc(OCC(=O)O)cc3)NC(=O)[C@H](C(C)O)NC(=O)CSC[C@@H](C(=O)N[C@H](CC(N)=O)C(=O)NCCCCCCCCCCC(=O)O)NC(=O)[C@H](C(C)O)NC(=O)[C@H](C(C)C)NC(=O)[C@H](CC3CCCCC3)NC(=O)[C@H](CCN)NC(=O)[C@@H](CC(C)C)NC(=O)[C@H](CCCN)NC(=O)[C@H](Cc3ccc(C(=O)O)cc3)NC(=O)[C@H](Cc3ccc(-c4ccccc4)cc3)NC(=O)[C@H](Cc3ccc(C(=O)O)cc3)NC2=O)c1` (stereo partly drawn) [Compound 3500] ({CH2CO}-[Thr(3ξ)]Y(Carboxymethyl)D[Phe(3-Me)][Phe(4-COOH)][Bip][Phe(4-COOH)][Orn][dL][Dab][Cha]V[Thr(3ξ)]C[dN][Aun]-OH; thioether N-14), the IC50 worked out at 5.2 nM.

As to `Cc1cccc(C[C@@H]2NC(=O)[C@H](CC(=O)O)NC(=O)[C@H](Cc3ccc(OCC(=O)O)cc3)NC(=O)[C@H](CCCNC(=N)N)NC(=O)CSC[C@@H](C(=O)NC(CCN)C(=O)NCCCCCCCCCCCC(=O)O)NC(=O)[C@H](C(C)O)NC(=O)[C@H](C(C)C)NC(=O)[C@H](CC3CCCCC3)NC(=O)[C@H](Cc3c[nH]cn3)NC(=O)[C@@H](CC(C)C)NC(=O)[C@H](CCCN)NC(=O)[C@H](CCCNC(N)=O)NC(=O)[C@H](Cc3ccc(-c4ccccc4)cc3)NC(=O)[C@H](C(C)C)NC2=O)c1` (stereo partly drawn) [Compound 3501] ({CH2CO}-RY(Carboxymethyl)D[Phe(3-Me)]V[Bip][Cit][Orn][dL]H[Cha]V[Thr(3ξ)]C[ξDab][12Ado]-OH; thioether N-14), the IC50 is 103 nM.

On to `Cc1cccc(C[C@@H]2NC(=O)[C@H](CC(=O)O)NC(=O)[C@H](Cc3ccc(OCC(=O)O)cc3)NC(=O)[C@H](Cc3ccc(OCC(=O)O)cc3)NC(=O)CSC[C@@H](C(=O)NC(CCN)C(=O)NCCCCCCCCCCCC(=O)O)NC(=O)[C@H](C(C)O)NC(=O)[C@H](C(C)C)NC(=O)[C@H](CC3CCCCC3)NC(=O)[C@H](Cc3cnc[nH]3)NC(=O)[C@@H](CC(C)C)NC(=O)[C@H](CCCN)NC(=O)[C@H](CCCNC(N)=O)NC(=O)[C@H](Cc3ccc(-c4ccccc4)cc3)NC(=O)[C@H](C(C)C)NC2=O)c1` (stereo partly drawn) [Compound 3502] ({CH2CO}-Y(Carboxymethyl)Y(Carboxymethyl)D[Phe(3-Me)]V[Bip][Cit][Orn][dL]H[Cha]V[Thr(3ξ)]C[ξDab][12Ado]-OH; thioether N-14), for which the IC50 is 63.1 nM. Take `Cc1cccc(C[C@@H]2NC(=O)[C@H](CC(=O)O)NC(=O)[C@H](Cc3ccc(OCC(=O)O)cc3)NC(=O)[C@H](C(C)O)NC(=O)CSC[C@@H](C(=O)NC(CCN)C(=O)NCCCCCCCCCCC(=O)O)NC(=O)[C@H](C(C)O)NC(=O)[C@H](C(C)C)NC(=O)[C@H](CC3CCCCC3)NC(=O)[C@H](Cc3cnc[nH]3)NC(=O)[C@@H](CC(C)C)NC(=O)[C@H](CCCN)NC(=O)[C@H](CCCNC(N)=O)NC(=O)[C@H](Cc3ccc(-c4ccccc4)cc3)NC(=O)[C@H](C(C)C)NC2=O)c1` (stereo partly drawn) [Compound 3503] ({CH2CO}-[Thr(3ξ)]Y(Carboxymethyl)D[Phe(3-Me)]V[Bip][Cit][Orn][dL]H[Cha]V[Thr(3ξ)]C[ξDab][Aun]-OH; thioether N-14): the IC50 worked out at 38.2 nM. Consider `Cc1cccc(C[C@@H]2NC(=O)[C@H](CC(=O)O)NC(=O)[C@H](Cc3ccc(OCC(=O)O)cc3)NC(=O)[C@H](C(C)O)NC(=O)CSC[C@@H](C(=O)NC(CCN)C(=O)NCCCCCCCCCCCC(=O)O)NC(=O)[C@H](C(C)O)NC(=O)[C@H](C(C)C)NC(=O)[C@H](CC3CCCCC3)NC(=O)[C@H](CCN)NC(=O)[C@@H](CC(C)C)NC(=O)[C@H](CCCN)NC(=O)[C@H](CCCNC(N)=O)NC(=O)[C@H](Cc3ccc(-c4ccccc4)cc3)NC(=O)[C@H](C(C)C)NC2=O)c1` (stereo partly drawn) [Compound 3504] ({CH2CO}-[Thr(3ξ)]Y(Carboxymethyl)D[Phe(3-Me)]V[Bip][Cit][Orn][dL][Dab][Cha]V[Thr(3ξ)]C[ξDab][12Ado]-OH; thioether N-14), for which the IC50 turned out to be 26.2 nM. Turning to `CC(=O)NCCCC[C@@H]1NC(=O)[C@H](Cc2ccc(-c3ccccc3)cc2)NC(=O)[C@H](Cc2ccc(O)cc2)NC(=O)[C@H](Cc2cccc(C)c2)NC(=O)[C@H](CC(=O)O)NC(=O)[C@H](Cc2ccc(OCC(=O)O)cc2)NC(=O)[C@H](CCCCNC(=N)N)NC(=O)CSC[C@@H](C(=O)N[C@@H](CCN)C(=O)NCCCCCCCCCCC(=O)O)NC(=O)[C@H](C(C)O)NC(=O)[C@H](C(C)C)NC(=O)[C@H](CC2CCCCC2)NC(=O)[C@H](CCN)NC(=O)[C@@H](CC(C)C)NC(=O)[C@H](CCCN)NC1=O` (stereo partly drawn) [Compound 3505] ({CH2CO}-[hArg]Y(Carboxymethyl)D[Phe(3-Me)]Y[Bip]K(Ac)[Orn][dL][Dab][Cha]V[Thr(3ξ)]C[Dab][Aun]-OH; thioether N-14), the IC50 stood at 16.6 nM. Then `Cc1cccc(C[C@@H]2NC(=O)[C@H](CC(=O)O)NC(=O)[C@H](Cc3ccc(OCC(=O)O)cc3)NC(=O)[C@H](CCCNC(=N)N)NC(=O)CSC[C@@H](C(=O)N[C@@H](CCN)C(=O)NCCCCCCCCCCC(=O)O)NC(=O)[C@H](C(C)O)NC(=O)[C@H](CO)NC(=O)[C@H](CC3CCCCC3)NC(=O)[C@H](CCN)NC(=O)[C@@H](CC(C)C)NC(=O)[C@H](CCCN)NC(=O)[C@H](Cc3ccc(OCC(=O)O)cc3)NC(=O)[C@H](Cc3ccc(-c4ccccc4)cc3)NC(=O)[C@H](Cc3ccc(CCC(=O)O)cc3)NC2=O)c1` (stereo partly drawn) [Compound 3506] ({CH2CO}-RY(Carboxymethyl)D[Phe(3-Me)][Phe(4-CH2CH2COOH)][Bip]Y(Carboxymethyl)[Orn][dL][Dab][Cha]S[Thr(3ξ)]C[Dab][Aun]-OH; thioether N-14), with 15.1 nM; and `CC(=O)NCCCC[C@@H]1NC(=O)[C@H](Cc2ccc(-c3ccccc3)cc2)NC(=O)[C@H](Cc2ccc(O)cc2)NC(=O)[C@H](Cc2cccc(C)c2)NC(=O)[C@H](CC(=O)O)NC(=O)[C@H](Cc2ccc(OCC(=O)O)cc2)NC(=O)[C@H](CCCNC(=N)N)NC(=O)CSC[C@@H](C(=O)N[C@@H](CCN)C(=O)NCCCCCCCCCCC(=O)O)NC(=O)[C@H](C(C)O)NC(=O)[C@H](CO)NC(=O)[C@H](CC2CCCCC2)NC(=O)[C@H](CCN)NC(=O)[C@@H](CC(C)C)NC(=O)[C@H](CCCN)NC1=O` (stereo partly drawn) [Compound 3507] ({CH2CO}-RY(Carboxymethyl)D[Phe(3-Me)]Y[Bip]K(Ac)[Orn][dL][Dab][Cha]S[Thr(3ξ)]C[Dab][Aun]-OH; thioether N-14), with 39.7 nM. Then `CC(=O)NCCCC[C@@H]1NC(=O)[C@H](Cc2ccc(-c3ccccc3)cc2)NC(=O)[C@H](Cc2ccc(O)cc2)NC(=O)[C@H](Cc2cccc(C)c2)NC(=O)[C@H](CC(=O)O)NC(=O)[C@H](Cc2ccc(OCC(=O)O)cc2)NC(=O)[C@H](CCCNC(=N)N)NC(=O)CSC[C@@H](C(=O)N[C@@H](CCN)C(=O)NCCCCCCCCCCC(=O)O)NC(=O)[C@H](C(C)O)NC(=O)[C@H](C(C)C)NC(=O)[C@H](CC2CCCCC2)NC(=O)[C@H](CCN)NC(=O)[C@@H](CC(C)C)NC(=O)[C@H](CCCN)NC1=O` (stereo partly drawn) [Compound 3508] ({CH2CO}-RY(Carboxymethyl)D[Phe(3-Me)]Y[Bip]K(Ac)[Orn][dL][Dab][Cha]V[Thr(3ξ)]C[Dab][Aun]-OH; thioether N-14), with 14.4 nM.

For `Cc1cccc(C[C@@H]2NC(=O)[C@H](CC(=O)O)NC(=O)[C@H](Cc3ccc(OCC(=O)O)cc3)NC(=O)[C@H](Cc3ccc(OCC(=O)O)cc3)NC(=O)CSC[C@@H](C(=O)NCCOCCOCC(=O)N(C)CCCCCCCCCCC(=O)O)NC(=O)[C@H](C(C)O)NC(=O)[C@H](C(C)C)NC(=O)[C@H](CC3CCCCC3)NC(=O)[C@H](CCN)NC(=O)[C@@H](CC(C)C)NC(=O)[C@H](CCCN)NC(=O)[C@H](CCCNC(N)=O)NC(=O)[C@H](Cc3ccc(-c4ccccc4)cc3)NC(=O)[C@H](C(C)C)NC2=O)c1` (stereo partly drawn) [Compound 3509] ({CH2CO}-Y(Carboxymethyl)Y(Carboxymethyl)D[Phe(3-Me)]V[Bip][Cit][Orn][dL][Dab][Cha]V[Thr(3ξ)]C[AEEA]-X20; thioether N-14), the IC50 is 136 nM.

Turning to `Cc1cccc(C[C@@H]2NC(=O)[C@H](CC(=O)O)NC(=O)[C@H](Cc3ccc(OCC(=O)O)cc3)NC(=O)[C@H](CCCNC(=N)N)NC(=O)CSC[C@@H](C(=O)N[C@@H](CNC(=O)C(C)(C)C)C(=O)NCCCCCCCCCCC(=O)O)NC(=O)[C@H](C(C)O)NC(=O)[C@H](C(C)C)NC(=O)[C@H](CC3CCCCC3)NC(=O)[C@H](CCN)NC(=O)[C@@H](CC(C)C)NC(=O)[C@H](CCCN)NC(=O)[C@H](CCCNC(N)=O)NC(=O)[C@H](Cc3ccc(-c4ccccc4)cc3)NC(=O)[C@H](C(C)C)NC2=O)c1` (stereo partly drawn) [Compound 3510] ({CH2CO}-RY(Carboxymethyl)D[Phe(3-Me)]V[Bip][Cit][Orn][dL][Dab][Cha]V[Thr(3ξ)]C[Dap](Piv)[Aun]-OH; thioether N-14), the IC50 was determined as 55.3 nM.
